Assay results reported in patent publication US9238812B2, “Agent for suppressing expression of dominant mutant gene” (LSIP, LLC, priority 2010, dated 2016).
r = 2'-OH (RNA)

Columns and labels:
[1] = test system: PC3 cells subcutaneously transplanted to nude mice; assay: Mouse model with subcutaneous tumor by xenoectopic transplantation of PC3 cells, intratumoral EGFR-siRNA; type: in vivo, nude mouse (BALB/cAJcl-nu/nu); conditions: single 1.0 mg/kg dose directly to the tumor with atelocollagen, vs atelocollagen only and siControl; for wet weight of the tumor: 3rd week; for tumor volume (swelling of the subcutaneous tumor): up to 3rd week
Method: PC3 cells were subcutaneously transplanted to nude mice to prepare mouse models with subcutaneous tumor. The mouse models were used to test tumor growth inhibitory effects by the administration of each EGFR-siRNA.
The cultured PC3 cells were dispersed by trypsin digestion, then collected by centrifugation (120 G, 5 min.), and resuspended in a serum- and antibiotic-free culture solution (RPMI-1640, Wako Pure Chemical Industries, Ltd.) to adjust the number of cells to 1×10^7 cells/mL. This cell suspension and BD Matrigel Basement Membrane Matrix (Becton, Dickinson and Company) were mixed in equal amounts to adjust the number of cells to 5×10^6 cells/mL. This suspension was subcutaneously administered at a dose of 100 μL (0.5×10^6 cells) to the right flank region of each immunodeficient model nude mouse (5 weeks old, BALB/cAJcl-nu/nu, CLEA Japan, Inc.).
The complexing procedures followed the protocol included therein. The final concentration of each EGFR-siRNA (si747/49-3D 19 or si747/49(A)-8D 19) was set to 0.1 mg/mL.
One week after PC3 cell transplantation (6 weeks old), tumor volume was calculated from tumor diameters. Three samples prepared above, i.e., the siRNA-free atelocollagen solution and 20 μg/200 μL solutions of siControl and each EGFR-siRNA were separately administered once at a dose of 1.0 mg/kg body weight directly to the tumor that reached approximately 50 mm^3. The tumor volume was calculated according to the following equation: Volume=(minor axis)^2×(major axis)×0.5
In the 3rd week after the administration of the siRNA, etc. (9 weeks old) (FIG. 25A, si747/49-3D19; FIG. 28A, si747/49(A)-8D19), the tumor volume was calculated according to the equation. In addition, the tumor was taken out of each mouse (FIG. 25B, si747/49-3D19; FIG. 28B, si747/49(A)-8D19), and its wet weight was measured.

[2] = test system: PC3 cells; assay: Cell growth and survival activity evaluation (1), MTS/NADH; type: cell-based, human; conditions: PC3 cells after siRNA electroporation; compared with No siRNA and siControl
Method: PC3 cells were cultured in the same way as in “Example 2(1)”.
Electroporation was performed in the same way as in “Example 2(2)”.
The cells were cultured (cell density: approximately 3×10^4 cells/well) in a 96-well culture plate using the culture solution of the paragraph (1). One day and 4 days later, the cells were subjected to each evaluation experiment. si747/49-3D19 was also subjected to similar evaluation experiments, together with a control, 2 days and 6 days after the cell culture.
In order to evaluate the cell growth and survival activity of PC3 cells after the introduction of si747/49-3D19, MTS reductive effect induced by nicotinamide adenine dinucleotide (NADH) contained in live cells was measured using CellTiter 96 AQueous Non-Radioactive Cell Proliferation Assay (Promega Corp.). The experimental procedures followed the protocol included in the product. Absorbance was measured using BenchMark Plus (Bio-Rad Laboratories, Inc.). The negative controls used were the same two controls (No siRNA and siControl) as in the cell growth ability assay.

[3] = test system: endogenous mutant EGFR gene (del(L747-E749)-A750P); assay: RT-PCR analysis of endogenous mutant EGFR expression in PC3 cells after siRNA electroporation; type: cell-based, human; conditions: siRNA 5 μM by electroporation, 24 hours, PCR and electrophoresis
Method: (§1) The human non-small cell lung cancer-derived cell line PC3 cells were cultured at 37° C. under 5% CO2 using an EMEM culture solution (Wako Pure Chemical Industries, Ltd.) containing 10% fetal bovine serum (FBS; Invitrogen Corp.).
(§2) The cells cultured in the preceding paragraph (1) were dispersed by trypsin digestion, then collected by centrifugation (120 G, 5 min.) and suspended at a concentration of approximately 1×10^6 cells in 100 μL of an electroporation buffer (Amaxa Cell Line Nucleofector Solution V, Amaxa Biosystems GmbH) containing each EGFR-siRNA (final concentration: 5 μM). These 3 samples for electroporation thus prepared were subjected to nucleic acid introduction (one of the samples was a control experimental group without nucleic acid introduction) by electroporation (program: U-005, gene introduction system Nucleofector, Amaxa Biosystems GmbH) according to the protocol included therein.
(§3) The cells of these 3 groups were separately cultured in a 6-well culture plate using the culture solution of the paragraph (1) and collected 24 hours later. […]
(§4) The cDNAs obtained in the preceding paragraph (3) were analyzed by PCR using AmpliTaq Gold DNA Polymerase (Applied Biosystems, Inc.) and primers specifically amplifying the EGFR mutation sites and their neighboring sequences. […] Then, the PCR amplification products were analyzed by electrophoresis (7% polyacrylamide gel, 100 mA, 1 hr.).

[4] = test system: wild-type EGFR gene; assay: RT-PCR analysis of wild-type EGFR expression in PC3 cells after siRNA electroporation; type: cell-based, human; conditions: siRNA 5 μM by electroporation, 24 hours, PCR and electrophoresis
Method: as §1, §2, §3, §4

Substance | wet weight of the tumor [1] | tumor volume (swelling of the subcutaneous tumor) [1] | cell growth and survival activity (cell survival rate), NADH activity [2] | expression of the endogenous mutant EGFR gene [3] | expression of the wild-type EGFR gene [4]
si747/49(A)-8D19: siRNA against EGFR del(L747-E749)-A750P(A) mutant gene; ss SEQ ID NO 139, as SEQ ID NO 140, 3′ UU added (sense CUAUCAAGGAACCAACAUC; antisense GAUGUUGCUUCCUUGAUAG; RNA, 3' rUrU, backbone not given here) | significantly reduced | significantly suppress the swelling of the subcutaneous tumor | significantly suppressed the growth rates of the cells or reduced their survival rates | specifically and strongly suppressed | without suppressing
si747/49-3D19: siRNA against EGFR del(L747-E749)-A750P(G) mutant gene; ss SEQ ID NO 55, as SEQ ID NO 56, 3′ UU added (sense GUCGCUAUCAAGGAGCCAA; antisense UUGGCUCCUUGAUAGCGAC; RNA, 3' rUrU, backbone not given here; listed as Homo sapiens) | significantly reduced | significantly suppress the swelling of the subcutaneous tumor | significantly suppressed the growth rates of the cells or reduced their survival rates | specifically and strongly suppressed | without suppressing
